Test results from patent US9113629B2, “4-amino-6-(4-substituted-phenyl)-picolinates and 6-amino-2-(4-substituted-phenyl)-pyrimidine-4-carboxylates and their use as herbicides” (DOW AGROSCIENCES LLC, priority 2013, dated 2015).
Where two headings read alike, the source gives them in different places.

Tests used:
[1] = test system: Key Broadleaf Weed and Crop Species; experiment: Post-emergent Test II herbicidal activity (Table 5); format: in vivo; conditions: post-emergence, 336 h, 14 days after application; for pest or weed control at 70 g/ha: application rate 70 g ai/ha; for pest or weed control at 140 g/ha: application rate 140 g ai/ha
In short: (§1)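 Plants grown in Metro-Mix 360 (pH 6.0–6.8) in a greenhouse (~15 h photoperiod, 23–29 °C day) to first or second true leaf stage, then sprayed with compound in acetone/DMSO/aqueous crop-oil-surfactant carrier at 187 L/ha by track sprayer. Injury visually scored 0–100% versus untreated plants after 14 d.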

[2] = test system: Key Grass and Sedge Weeds as well as Grass Crops; experiment: Post-emergent Test II herbicidal activity (Table 6); format: in vivo; conditions: post-emergence, 336 h; for pest or weed control at 70 g/ha: 70 g ai/ha; for pest or weed control at 140 g/ha: 140 g ai/ha
In short: as §1

[3] = ABUTH: velvetleaf (Abutilon theophrasti), read-out: Visual Growth Reduction (%) 14 Days After Application, ABUTH
[4] = AMARE: redroot pigweed (Amaranthus retroflexus), read-out: Visual Growth Reduction (%) 14 Days After Application, AMARE
[5] = BRSNN: oilseed-rape, canola (Brassica napus), read-out: Visual Growth Reduction (%) 14 Days After Application, BRSNN
[6] = CHEAL: lambsquarters (Chenopodium album), read-out: Visual Growth Reduction (%) 14 Days After Application, CHEAL
[7] = EPHHL: wild poinsettia (Euphorbia heterophylla), read-out: Visual Growth Reduction (%) 14 Days After Application, EPHHL
[8] = HELAN: sunflower (Helianthus annuus), read-out: Visual Growth Reduction (%) 14 Days After Application, HELAN
[9] = VIOTR: wild pansy (Viola tricolor), read-out: Visual Growth Reduction (%) 14 Days After Application, VIOTR
[10] = CYPES: yellow nutsedge (Cyperus esculentus), read-out: Visual Growth Reduction (%) 14 Days After Application, CYPES
[11] = DIGSA: crabgrass (Digitaria sanguinalis), read-out: Visual Growth Reduction (%) 14 Days After Application, DIGSA
[12] = ECHCG: barnyardgrass (Echinochloa crus-galli), read-out: Visual Growth Reduction (%) 14 Days After Application, ECHCG
[13] = ORYSA: rice (Oryza sativa), crop, read-out: Visual Growth Reduction (%) 14 Days After Application, ORYSA
[14] = SETFA: giant foxtail (Setaria faberi), read-out: Visual Growth Reduction (%) 14 Days After Application, SETFA
[15] = SORVU: grain sorghum (Sorghum vulgare), read-out: Visual Growth Reduction (%) 14 Days After Application, SORVU
[16] = TRZSS (wheat, Triticum aestivum), crop, read-out: Visual Growth Reduction (%) 14 Days After Application, TRZSS
[17] = ZEAMX: maize, corn (Zea mays), crop, read-out: Visual Growth Reduction (%) 14 Days After Application, ZEAMX

Structure (SMILES)	pest or weed control at 70 g/ha [1, 3]	pest or weed control at 140 g/ha [1, 3]	pest or weed control at 70 g/ha [1, 4]	pest or weed control at 140 g/ha [1, 4]	pest or weed control at 70 g/ha [1, 5]	pest or weed control at 140 g/ha [1, 5]	pest or weed control at 70 g/ha [1, 6]	pest or weed control at 140 g/ha [1, 6]	pest or weed control at 70 g/ha [1, 7]	pest or weed control at 140 g/ha [1, 7]	pest or weed control at 70 g/ha [1, 8]	pest or weed control at 140 g/ha [1, 8]	pest or weed control at 70 g/ha [1, 9]	pest or weed control at 70 g/ha [2, 10]	pest or weed control at 140 g/ha [2, 10]	pest or weed control at 70 g/ha [2, 11]	pest or weed control at 140 g/ha [2, 11]	pest or weed control at 70 g/ha [2, 12]	pest or weed control at 140 g/ha [2, 12]	pest or weed control at 70 g/ha [2, 13]	other results
Nc1c(F)c(-c2ccc(OC(F)F)cc2)nc(C(=O)O)c1Cl [Compound 143]	85 to 94%	85 to 94%	60 to 74%	85 to 94%	60 to 74%	85 to 94%	85 to 94%	85 to 94%	95 to 100%	95 to 100%	60 to 74%	85 to 94%	30 to 44%	85 to 94%	85 to 94%	75 to 84%	75 to 84%	95 to 100%	95 to 100%	0 to 29%	pest or weed control at 140 g/ha [1, 9]: 30 to 44%; pest or weed control at 140 g/ha [2, 13]: 30 to 44%; pest or weed control at 70 g/ha [2, 14]: 75 to 84%; pest or weed control at 140 g/ha [2, 14]: 75 to 84%; pest or weed control at 70 g/ha [2, 15]: 85 to 94%; pest or weed control at 140 g/ha [2, 15]: 85 to 94%; pest or weed control at 70 g/ha [2, 16]: 45 to 59%; pest or weed control at 140 g/ha [2, 16]: 60 to 74%; pest or weed control at 70 g/ha [2, 17]: 85 to 94%; pest or weed control at 140 g/ha [2, 17]: 85 to 94%
COC(=O)c1nc(-c2ccc(Br)c(F)c2F)cc(N)c1Cl [Compound 114, methyl 4-amino-6-(4-bromo-2,3-difluorophenyl)-3-chloropicolinate]	95 to 100%	95 to 100%	95 to 100%	95 to 100%	85 to 94%	95 to 100%	95 to 100%	95 to 100%	95 to 100%	95 to 100%	95 to 100%	95 to 100%	95 to 100%	95 to 100%	95 to 100%	60 to 74%	60 to 74%	95 to 100%	95 to 100%	0 to 29%	pest or weed control at 140 g/ha [1, 9]: 95 to 100%; pest or weed control at 140 g/ha [2, 13]: 0 to 29%; pest or weed control at 70 g/ha [2, 14]: 60 to 74%; pest or weed control at 140 g/ha [2, 14]: 75 to 84%; pest or weed control at 70 g/ha [2, 15]: 95 to 100%; pest or weed control at 140 g/ha [2, 15]: 95 to 100%; pest or weed control at 70 g/ha [2, 16]: 30 to 44%; pest or weed control at 140 g/ha [2, 16]: 45 to 59%; pest or weed control at 70 g/ha [2, 17]: 85 to 94%; pest or weed control at 140 g/ha [2, 17]: 85 to 94%
C=Cc1c(C(=O)OC)nc(-c2ccc(Cl)c(F)c2)c(F)c1N [Compound 215, methyl 4-amino-6-(4-chloro-3-fluorophenyl)-5-fluoro-3-vinylpicolinate]	95 to 100%	95 to 100%	95 to 100%	95 to 100%	95 to 100%	95 to 100%	95 to 100%	95 to 100%	95 to 100%	95 to 100%	95 to 100%	95 to 100%	0 to 29%	95 to 100%	95 to 100%	0 to 29%	0 to 29%	0 to 29%	95 to 100%	0 to 29%	pest or weed control at 140 g/ha [2, 13]: 0 to 29%; pest or weed control at 70 g/ha [2, 14]: 0 to 29%; pest or weed control at 140 g/ha [2, 14]: 0 to 29%; pest or weed control at 70 g/ha [2, 15]: 45 to 59%; pest or weed control at 140 g/ha [2, 15]: 60 to 74%; pest or weed control at 70 g/ha [2, 16]: 0 to 29%; pest or weed control at 140 g/ha [2, 16]: 0 to 29%; pest or weed control at 70 g/ha [2, 17]: 30 to 44%; pest or weed control at 140 g/ha [2, 17]: 45 to 59%
